# “And” between values parts separate entries of the source, which are not always exact repeats. Equal values may be shown once.
# Legend:
# [1] = test system: primary human VSMCs; assay: VSMC viability (MTS) in high-CaP medium; type: cell-based
# [2] = VSMC viability (MTS) in high-CaP medium; type: cell-based, human; conditions: human, primary human VSMCs, read-out: VSMC viability (MTS), % of medium control
# [3] = test system: primary human VSMCs; assay: VSMC viability (MTS) in CPP2-supplemented medium; type: cell-based
# Procedure: (§1) Macrophage accumulation and inflammation coincide with the initial phase of calcification. To this end, VSMCs and THP-1-derived macrophages were exposed to CPP2-supplemented medium. CPP2 prepared from human serum as described previously[61] (Supplementary Figs. 6 and 7), induced a pronounced VSMC monolayer calcification after 48 h, which was decreased by (OEG2)2-IP4 in a dose-dependent fashion, and the effect became significant at 10 µM (Fig. 3e). […] Both H2O2 (proxy for oxidative stress) and tumor necrosis factor-alpha (TNF-α) (proxy for inflammatory response) levels were assayed in the VSMC culture supernatants subsequent to CPP2 treatment with and without compounds[30]. However, no increase in H2O2 nor TNF-α compared to control could be detected in either assay. For the CPP-induced VSMC calcification assay (Fig. 3e) a roughly 10-fold higher concentration of (OEG2)2-IP4 was necessary to achieve similar activity as in the CaP-induced VSMC calcification assay (Fig. 3b). […] In the CaP assay, low inhibitor concentration may be sufficient to inhibit crystal nucleation, whereas for the CPP assay higher inhibitor concentrations may be needed to achieve sufficient particle stabilization by chemisorption of inhibitor onto CPPs. Similar results have been reported for hydrogen sulfide in the context of VC[62],[64]. […] An increase in the TNFα levels in the cell culture supernatants was not observed for (OEG2)2-IP4 with (Fig. 3h) and without (Supplementary Fig. 10) combined CPP2 treatment.
# (§2) Cell viability was assessed using the MTS assay (CellTiter 96® Aqueous One Solution Cell Proliferation Assay, G3580; Promega, Madison, WI, USA) according to the manufacturer’s instructions. Assays using combined treatment of CPPs or CaP and test compounds were performed in 24-well plates using 20,000 cells per well and assays using test compounds only were performed in a 96-well plate format with a seeding density of 10,000 (VSMC) or 50,000 (THP-1) cells per well, respectively. For controls, cells were treated with respective complete medium only and results were calculated as % of control.
# [4] = VSMC viability (MTS) in CPP2-supplemented medium; type: cell-based, human; conditions: human, primary human VSMCs, read-out: VSMC viability (MTS), % of medium control
# Procedure: as §1, §2
# [5] = molecular target: CPP2; assay: Competitive 18F-NaF binding assay on CPPs; set-up: species or system human
# Procedure: A ^18F-NaF-based competitive binding assay was developed to indirectly assess the inhibitor affinity (IC50) to CPPs. The uptake mechanism of ^18F-NaF, a marker of micro-calcification activity by chemisorption onto hydroxyapatite crystals, is contingent on the rapid exchange of hydroxyl (OH^−) groups present on the hydroxyapatite surface (Ca5(PO4)3(OH)) by ^18F^− to form fluoroapatite (Ca5(PO4)3^18F)[34],[54].
# Triplicate aliquots of CPP2s (20 µg Ca/mL) in 100 μL assay buffer (100 mM HBS, pH 7.4 (RT)) were incubated for 1 h at RT in the presence of increasing concentrations of compounds in 50 μL Milli-Q water and ^18F-NaF (1 nM) in 50 μL assay buffer, resulting in a total incubation volume of 200 μL (^18F-NaF was prepared using a FASTlab synthesizer (GE Healthcare, Little Chalfont, UK) and commercially available ^18F-NaF cassettes (GE Healthcare)). Maximum radiotracer binding was determined by incubating CPP2s with ^18F-NaF (1 nM) only. The reaction was terminated by rapid filtration through a SOLAμ™ SPE plate (HRP 2 mg/mL 96-well plate, 22 μm; Thermo Fisher Scientific). SPE individual column matrices were washed twice rapidly in assay buffer and radioactivity on the filters determined by an automatic gamma counter (Wizard2 Gamma Counter, Perkin Elmer, Waltham, MA, USA). […] IC50 is the concentration of […] that gives a response half way between the bottom and top parts of the curve. ^18F-NaF micro-PET/computed tomography (micro-PET/CT) was employed for ex vivo analysis of (OEG2)2-IP4’s engagement to target calcified human tissue explants, as described previously. […] Following incubations, samples were washed twice in 0.1 M PBS (1 min per wash) and mounted on a Petri dish for micro-PET/CT imaging (nanoPET/CT, Mediso, Budapest, Hungary). In total, seven samples from the femoral arteries of three patients with ischemic peripheral disease and three samples from native aortic valves of three patients undergoing valve replacement surgery were used. All samples were collected at the time of surgery and stored in 4% paraformaldehyde at RT until further use. All patients gave their written, informed consent. All procedures had local ethical approval (06/S0703/110, 12/WS/0227, 09/S0703/118, and 12/NW/0036). All studies were approved by East and West Scotland Research Ethics Committees, and all experiments were conducted according to the principles expressed in the Declaration of Helsinki.
# [6] = 1 µM with CPP2, replicates Fig. 3f
structure (smiles),measurement,setting,value
"O=P(O)(O)O[C@H]1[C@H](OP(=O)(O)O)[C@@H](OP(=O)(O)O)[C@H](OP(=O)(O)O)[C@@H](OP(=O)(O)O)[C@H]1OP(=O)(O)O [IP6, myo-Inositol hexakisphosphate]","VSMC viability (MTS), % of medium control","[1]; 0.01 µM in high-CaP medium, replicates Fig. 3d",67.31% and 30.78% and 56.19%
same,"VSMC viability (MTS), % of medium control",[1]; 0.1 µM in high-CaP medium,69.48% and 36.65% and 58.54%
same,"VSMC viability (MTS), % of medium control",[1]; 1 µM in high-CaP medium,54.02% and 63.76%
same,"VSMC viability (MTS), % of medium control",[1]; 10 µM in high-CaP medium,84.96% and 80.54%
same,"VSMC viability (MTS), % of medium control",[1]; 100 µM in high-CaP medium,97.34% and 86.99%
same,"viability at 5 days, 1 µM",[2]; 1 µM in high-CaP medium,68.8%
same,"viability at 5 days, 10 µM",[2]; 10 µM in high-CaP medium,69.9%
same,"viability at 5 days, 100 µM",[2]; 100 µM in high-CaP medium,78.7%
same,"VSMC viability (MTS), % of medium control",[3]; [6],94.0938% and 110.013%
same,"VSMC viability (MTS), % of medium control",[3]; 3 µM with CPP2,97.0633% and 115.505%
same,"VSMC viability (MTS), % of medium control",[3]; 10 µM with CPP2,97.8153% and 108.364%
same,"VSMC viability (MTS), % of medium control",[3]; 30 µM with CPP2,106.197% and 112.672%
same,"VSMC viability (MTS), % of medium control",[3]; 100 µM with CPP2,103.122% and 102.613% and 123.477%
same,"viability at 48 h, 1 µM",[4]; [6],100%
same,"viability at 48 h, 3 µM",[4]; 3 µM with CPP2,106%
same,"viability at 48 h, 10 µM",[4]; 10 µM with CPP2,109%
same,"viability at 48 h, 30 µM",[4]; 30 µM with CPP2,94.2%
same,IC50,"[5]; CPP2 20 µg Ca/mL, 18F-NaF 1 nM, 1 h RT, read-out: IC50 (reduction of 18F binding to CPP)",3.96 µM
same,18F-NaF percentage binding to CPP2,[5]; concentration 0.75 (unit not given),94.1339% and 121.154% and 102.128%
same,18F-NaF percentage binding to CPP2,[5]; concentration 2.5 (unit not given),93.0288% and 114.326% and 101.486%
same,18F-NaF percentage binding to CPP2,[5]; concentration 7.5 (unit not given),92.4582% and 110.79% and 97.129%
same,18F-NaF percentage binding to CPP2,[5]; concentration 25 (unit not given),95.6995% and 114.564% and 112.333%
same,18F-NaF percentage binding to CPP2,[5]; concentration 75 (unit not given),85.0945% and 107.18% and 113.212%
same,18F-NaF percentage binding to CPP2,[5]; concentration 250 (unit not given),87.0585% and 108.409% and 103.034%
same,18F-NaF percentage binding to CPP2,[5]; concentration 750 (unit not given),87.2718% and 107.684% and 96.5293%
same,18F-NaF percentage binding to CPP2,[5]; concentration 1750 (unit not given),100.593% and 62.29% and 66.5713%
same,18F-NaF percentage binding to CPP2,[5]; concentration 2500 (unit not given),85.021% and 85.5383% and 72.51%
same,18F-NaF percentage binding to CPP2,[5]; concentration 7500 (unit not given),76.4111% and 59.8209% and 66.7993%
same,18F-NaF percentage binding to CPP2,[5]; concentration 25000 (unit not given),66.3738% and 68.2115% and 51.6692%
same,18F-NaF percentage binding to CPP2,[5]; concentration 75000 (unit not given),48.1457% and 55.4993% and 51.2901%
same,18F-NaF percentage binding to CPP2,[5]; concentration 250000 (unit not given),52.9543% and 43.7782% and 27.6001%
same,18F-NaF percentage binding to CPP2,"[5]; concentration 750000 (unit not given), replicates Fig. 2c",50.6666% and 38.054% and 33.4917%

# — paper PMC7002685, “Inhibition of vascular calcification by inositol phosphates derivatized with ethylene glycol oligomers” (Nature Communications, 2020)
